Reference: US20050032827A1, “Sigma ligands for neuronal regeneration and functional recovery” (priority 2003, published 2005)

How the values were obtained:
[1] = system: SHR (spontaneous hypertensive) rats, stroke by MCA occlusion; assay: Cylinder test for asymmetric forelimb use after MCA occlusion; format: in vivo, rat; settings: 0.03-10 mg/kg s.c. or p.o. from two days after MCAO for 2-8 weeks; saline control
Text: (§1) Male 3 months old SHR (spontaneous hypertensive) rats are used for induction of stroke by MCA occlusion. This is the preferred strain since most stroke patients are hypertensive. The animals are anesthetized with Methohexital and a small craniectomy is made above the zygmotic arch to expose the middle cerebral artery, which is occluded with a 10-0 monofilament nylon thread distal to the origin of the striatal branches. The rats are not intubated and no catheters are inserted. Following MCA occlusion a large and reproducible infarct is obtained, leading to a robust sensorimotor deficit. The animals are kept on a 6 hr light/18 h dark cycle with free access to food and water. At two days after the MCAO the rats are treated with the compound I, II, III, IV, V, VI, VII, VIII, or IX (0.03-10 mg/kg) s.c. or p.o. and a control group is given saline for 2-8 weeks. At 2, 4, 6 and 8 weeks animals are tested in the rotating pole or cylinder test
The cylinder test (modified from Schallert and Tillerson (Innovative models of CNS disease: from molecule to therapy. Clifton, N.J., Humana, 1999) is used to quantify the forelimb use for rearing on the cylinder wall. The rats are monitored as they move freely in a 20-cm-wide clear glass cylinder. Contacts made by each forepaw with the cylinder wall while rearing are scored by a blinded observer. A total of 20 contacts are recorded for each animal, and the number of impaired (left), both, and non-impaired forelimb contacts as percentage of total contacts is calculated. Baseline for rats is achieved by measuring the contacts made by each forepaw before MCAO.

sigma-2 receptor = sigma-2 receptor (Homo sapiens, UniProt Q5BJF2); settings: Perregaard et al. (1995); cited from earlier work
[2] = hydrohalide salts, in particular the hydrochloride salt; WO 99/24436; cited from earlier work
[3] = system: SHR (spontaneous hypertensive) rats, stroke by MCA occlusion; assay: Rotating pole test after MCA occlusion; format: in vivo, rat; settings: 0.03-10 mg/kg s.c. or p.o. from two days after MCAO for 2-8 weeks; saline control
Text: as §1
A score of 6-0 is given for each direction: • 6, the animal crosses the pole with no foot slips; • 5, the animal crosses the pole with a few foot slips; • 4, the animal crosses the pole, slipping 50% of the footsteps; • 3, the animal crosses the pole with more than 50% foot slips; • 2, the animal walks a bit and then rotates around the pole; • 1, the animal rotates around the pole without crossing it; • 0, the animal falls off the pole. Cylinder Test for Asymmetric Use of Forelimb Use in Spontaneous Rearing

[4] = system: hypertensive rats exposed to permanent middle artery occlusion (MCAO), a model of ischemic stroke; assay: Morris water maze after permanent MCAO; format: in vivo, rat; settings: for Latency to Find Hidden Platform, TRIAL 3 / Latency to Find Hidden Platform, TRIAL 4 / Latency to Find Hidden Platform, TRIAL 5 / Latency to Find Hidden Platform, TRIAL 1 / Latency to Find Hidden Platform, TRIAL 2 / Path Length to Find Hidden Platform, TRIAL 1 / Path Length to Find Hidden Platform, TRIAL 2 / Path Length to Find Hidden Platform, TRIAL 3 / Path Length to Find Hidden Platform, TRIAL 4 / Path Length to Find Hidden Platform, TRIAL 5: 14 days from day 2 after MCAO, tested day 35; for Latency to Find Hidden Platform, TRIAL 1 / Latency to Find Hidden Platform, TRIAL 2 / Path Length to Find Hidden Platform, TRIAL 1 / Path Length to Find Hidden Platform, TRIAL 2 / Path Length to Find Hidden Platform, TRIAL 3 / Path Length to Find Hidden Platform, TRIAL 4 / Path Length to Find Hidden Platform, TRIAL 5: value (SEM)
Procedure: The Morris water maze was used to assess functional recovery, in particular recovery in a cognitive skill, in hypertensive rats after exposure to permanent middle artery occlusion (MCAO), a model of ischemic stroke.
Forty three hypertensive rats were exposed to permanent middle artery occlusion (MCAO). Starting at two days after occlusion and continuing for 14 days, Siramesine was administered p.o. in doses of 0.3 mg/kg (14 rats) or 1.0 mg/kg (14 rats). In a control group (15 rats), vehicle only was administered. On day 35 after permanent MCAO, the rats were assessed for their performance in the Morris Water Maze Test.
In the test, the rats were given a series of 6 trials, 1 hour apart in a large dark-colored tank (200 cm in ) filled with clear water at a temperature of 22.0±1.5° C. A 12×12-cm submerged platform (2 mm below the water surface) was placed in the northwest quadrant of the pool. The release point was always the southern end of the pool. The rats were lowered into the pool facing the wall, and then released. Each rat was given a maximum of 90 seconds to find the submerged platform. […] After remaining on the platform for 20 seconds, the rat was removed and placed in a dry cage. One hour later, each rat was given a second trial, using the same release position and platform position, to measure the rat's retention of the platform location. The process was repeated a total of 5 times for each rat, each trial 1 hour apart. The swim paths of the rats were recorded with a computer tracking system and the latency and the length of swim path to find the hidden platform were analyzed.

sigma-1 receptor = sigma-1 receptor (Homo sapiens, UniProt Q99720); settings: literature reports; cited from earlier work
sigma-1 site = sigma-1 site (Homo sapiens, UniProt Q99720); settings: (+) isomers of benzomorphan opiates; Hellewell and Bowen (1990); cited from earlier work
[5] = system: rat primary neuronal cultures; settings: Nakazawa et al. (1998); cited from earlier work
[6] = system: cultured rat retinal neurons; settings: Senda et al. (1998); cited from earlier work
[7] = system: NMDA-induced toxicity and seizures; settings: in vivo models; Pontecorvo et al. (1991); cited from earlier work
ischemia in gerbils = settings: cited from earlier work
[8] = system: NMDA-type of glutamate receptors; settings: cited from earlier work

Sequence of sigma-1 receptor (Q99720 whole entry): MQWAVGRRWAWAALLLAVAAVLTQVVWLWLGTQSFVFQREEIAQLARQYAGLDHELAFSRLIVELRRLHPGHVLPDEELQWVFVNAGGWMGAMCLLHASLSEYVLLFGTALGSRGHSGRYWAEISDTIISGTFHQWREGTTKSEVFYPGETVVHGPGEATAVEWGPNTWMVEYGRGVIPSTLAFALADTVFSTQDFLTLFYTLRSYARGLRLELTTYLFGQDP
Sequence of sigma-2 receptor (Q5BJF2 whole entry, species assumed): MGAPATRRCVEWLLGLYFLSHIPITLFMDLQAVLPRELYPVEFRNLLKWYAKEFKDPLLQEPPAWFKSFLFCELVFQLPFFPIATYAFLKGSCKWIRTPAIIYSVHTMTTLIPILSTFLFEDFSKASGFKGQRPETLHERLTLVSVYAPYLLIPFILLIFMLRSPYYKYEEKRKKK
Sequence of sigma-1 site (Q99720 whole entry): as the sequence (Q99720 whole entry) above

## Fc1ccc(-n2cc(CCCCN3CCC4(CC3)OCc3ccccc34)c3ccccc32)cc1 [Siramesine, 1′-[4-[1-(4-fluorophenyl)-1H-indol-3-yl]-1-butyl] spiro [isobenzofuran-1(3H),4′-piperidine]]
[1]
  performance in cylinder test versus control: perform better than the group 1 control animals
sigma-2 receptor
  sigma-2 receptor functional activity: selective sigma-2 agonist
[2]
  bioavailability: good bioavailability
[3]
  performance in rotating pole test versus control: perform better than the group 1 control animals
[4]; 0.3 mg/kg p.o.
  Latency to Find Hidden Platform, TRIAL 3: 47.0 s
  Latency to Find Hidden Platform, TRIAL 4: 33.1 s
  Latency to Find Hidden Platform, TRIAL 5: 15.66 s
  Latency to Find Hidden Platform, TRIAL 1: 72.4 (7.3) SECONDS
  Latency to Find Hidden Platform, TRIAL 2: 43.6 (7.9) SECONDS
  Path Length to Find Hidden Platform, TRIAL 1: 14.5 (1.8) METERS
  Path Length to Find Hidden Platform, TRIAL 2: 12.4 (2.3) METERS
  Path Length to Find Hidden Platform, TRIAL 3: 14.4 (2.7) METERS
  Path Length to Find Hidden Platform, TRIAL 4: 10.4 (2.4) METERS
  Path Length to Find Hidden Platform, TRIAL 5: 4.3 (0.6) METERS
[4]; 1.0 mg/kg p.o.
  Latency to Find Hidden Platform, TRIAL 3: 59.99 s
  Latency to Find Hidden Platform, TRIAL 4: 34.3 s
  Latency to Find Hidden Platform, TRIAL 5: 19.8 s
  Latency to Find Hidden Platform, TRIAL 1: 62.4 (7.7) SECONDS
  Latency to Find Hidden Platform, TRIAL 2: 62.2 (8.5) SECONDS
  Path Length to Find Hidden Platform, TRIAL 1: 11.1 (1.4) METERS
  Path Length to Find Hidden Platform, TRIAL 2: 16.2 (2.2) METERS
  Path Length to Find Hidden Platform, TRIAL 3: 16.65 (2.2) METERS
  Path Length to Find Hidden Platform, TRIAL 4: 9.7 (1.9) METERS
  Path Length to Find Hidden Platform, TRIAL 5: 5.29 (1.5) METERS
[4]; administered daily to rats from 2 days after the stroke for 14 days
  functional recovery, in particular recovery in a cognitive skill: facilitates functional recovery
sigma-1 receptor
  sigma-1 receptor functional activity: displays activity towards the sigma 1 receptor

## CC(C)=CCN1CCC2(C)c3cc(O)ccc3CC1C2C (single isomer, unassigned; (+)) [(+)pentazocine]
sigma-1 site
  affinity for the sigma-1 site compared to the sigma-2 site: nearly two orders of magnitude higher affinity for the sigma-1 site

## COc1ccc(CCN2CCN(CCCc3ccccc3)CC2)cc1OC [IV]
[1]
  performance in cylinder test versus control: perform better than the group 1 control animals
[3]
  performance in rotating pole test versus control: perform better than the group 1 control animals

## COc1ccc(CN2CCN(Cc3ccccc3)CC2)c(O)c1OC [IX]
[1]
  performance in cylinder test versus control: perform better than the group 1 control animals
[3]
  performance in rotating pole test versus control: perform better than the group 1 control animals

## COc1ccc(CCN2CCN(CCCc3ccccc3)CC2)cc1OC [SA4503, 1-(3,4-dimethoxyphenethyl)-4-(3-phenylpropyl) piperazine]
[5]
  suppression of hypoxia/hypoglycemia-induced neurotoxicity: significantly suppress hypoxia/hypoglycemia-induced neurotoxicity
[6]
  activity against glutamate neurotoxicity: active against glutamate neurotoxicity
sigma-1 receptor
  sigma-1 receptor functional activity: selective sigma-1 agonist

## O=C(OCCN1CCOCC1)C1(c2ccccc2)CCCCC1 [III]
[1]
  performance in cylinder test versus control: perform better than the group 1 control animals
[3]
  performance in rotating pole test versus control: perform better than the group 1 control animals

## CCN(CC)CCOC(=O)C1(c2ccccc2)CCCC1 [caramiphen]
[7]
  protective effects against NMDA-induced toxicity and seizures: protective effects against NMDA-induced toxicity and seizures

## COc1cccc2c1CCC(=O)N2CCCN1CCN(c2cccc(Cl)c2)CC1 [VII]
[1]
  performance in cylinder test versus control: perform better than the group 1 control animals
[3]
  performance in rotating pole test versus control: perform better than the group 1 control animals

## COCCCC/C(=N\OCCN)c1ccc(C(F)(F)F)cc1 [compound I]
[1]
  performance in cylinder test versus control: perform better than the group 1 control animals
[3]
  performance in rotating pole test versus control: perform better than the group 1 control animals

## CN(CCc1ccc(Cl)c(Cl)c1)C1CCCCC1N1CCCC1 (stereo not drawn) [VIII]
[1]
  performance in cylinder test versus control: perform better than the group 1 control animals
[3]
  performance in rotating pole test versus control: perform better than the group 1 control animals

## O=C(NC1CCN(Cc2ccccc2)CC1)c1ccc(I)cc1 [II]
[1]
  performance in cylinder test versus control: perform better than the group 1 control animals
[3]
  performance in rotating pole test versus control: perform better than the group 1 control animals

## O=C(CCCN1CCC(O)(c2ccc(Cl)cc2)CC1)c1ccc(F)cc1 [haloperidol]
[7]
  protective effects against NMDA-induced toxicity and seizures: protective effects against NMDA-induced toxicity and seizures

## OCCN1CCN(CCCN2c3ccccc3C=Cc3ccccc32)CC1 [opipramol]
Ischemia in gerbils
  protection against ischemia: protect against ischemia in gerbils
[8]
  modulation of NMDA-type glutamate receptors: modulate the NMDA-type of glutamate receptors

## OC(CCCN1CCN(c2ncc(F)cn2)CC1)c1ccc(F)cc1 (stereo not drawn) [BMY-14802]
[7]
  protective effects against NMDA-induced toxicity and seizures: protective effects against NMDA-induced toxicity and seizures

## CCC(C/C=C/c1ccccc1)(c1ccccc1)N(C)CC1CC1 (stereo not drawn) [VI]
[1]
  performance in cylinder test versus control: perform better than the group 1 control animals
[3]
  performance in rotating pole test versus control: perform better than the group 1 control animals
